Here are results for two compounds from paper PMC6941823, “A dispensable paralog of succinate dehydrogenase subunit C mediates standing resistance towards a subclass of SDHI fungicides in Zymoseptoria tritici” (PLoS Pathogens, 2019).

Broadly, the IC50 is the concentration that inhibits the measured activity by half.

The test system of assay [1] is SQR (SDHC / altC) of IPO323 pTet::SDHC3 transformant, induced. In words: Succinate-quinone (SQR) SDHI sensitivity assay on purified mitochondria, IPO323 pTet::SDHC3 induced. Format: biochemical, Zymoseptoria tritici. The following applies: IPO323 pTet::SDHC3 transformant grown in the absence of doxycycline; mean of three ± SD. In outline:
(§1)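 Succinate:ubiquinone/DCPIP reductase inhibition measured on purified mitochondria from Zymoseptoria tritici strains carrying either a single C-subunit gene (ZtSDHC1, ZtSDHC1_A84I or ZtSDHC3) or both ZtSDHC1 and ZtSDHC3; pTet::SDHC3 transformant tested under repressed and induced conditions.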

In assay [2] the target is SQR of 06STD024 (SDHC / altC) mitochondria (Zymoseptoria tritici, UniProt A0A1X7RQW2+F9X9V6+F9XH52+O42772). Put plainly: Succinate-quinone (SQR) SDHI sensitivity assay on purified mitochondria, 06STD024. Format: biochemical. The following applies: for RF (resistance factor), 06STD024 (SDHC / altC): IC50 ratio compared to IPO323 values; for IC50: mitochondria of field isolate 06STD024, mean of three ± SD. In outline:
as §1

In assay [3] the target is SQR (SDHC / altC) of IPO323 pTet::SDHC3 transformant, repressed (Zymoseptoria tritici, UniProt A0A1X7RQW2+F9X9V6+F9XH52+O42772). In words: Succinate-quinone (SQR) SDHI sensitivity assay on purified mitochondria, IPO323 pTet::SDHC3 repressed. It counts as biochemical. As to conditions: for RF (resistance factor), pTet Repressed (SDHC / altC): IC50 ratio compared to IPO323 values; for IC50: IPO323 pTet::SDHC3 transformant grown in presence of 30 mg.L^-1 doxycycline, mean of three ± SD. An outline of the steps: as §1
Chain of SQR (SDHC / altC) of IPO323 pTet::SDHC3 transformant, repressed (F9XH52 44-187): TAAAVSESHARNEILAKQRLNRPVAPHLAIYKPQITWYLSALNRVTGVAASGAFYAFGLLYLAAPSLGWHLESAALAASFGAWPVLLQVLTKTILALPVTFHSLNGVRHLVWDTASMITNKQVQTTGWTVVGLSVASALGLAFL
Chain of SQR (SDHC / altC) of IPO323 pTet::SDHC3 transformant, repressed (O42772 20-297): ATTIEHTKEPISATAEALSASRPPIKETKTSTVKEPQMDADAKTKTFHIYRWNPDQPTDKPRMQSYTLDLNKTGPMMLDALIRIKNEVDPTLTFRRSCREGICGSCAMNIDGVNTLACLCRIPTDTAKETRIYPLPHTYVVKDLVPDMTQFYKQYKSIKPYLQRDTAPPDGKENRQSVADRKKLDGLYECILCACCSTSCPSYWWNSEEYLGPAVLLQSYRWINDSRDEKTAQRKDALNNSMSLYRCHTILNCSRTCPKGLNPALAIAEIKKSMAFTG
Chain of SQR (SDHC / altC) of IPO323 pTet::SDHC3 transformant, repressed (F9X9V6 1-193): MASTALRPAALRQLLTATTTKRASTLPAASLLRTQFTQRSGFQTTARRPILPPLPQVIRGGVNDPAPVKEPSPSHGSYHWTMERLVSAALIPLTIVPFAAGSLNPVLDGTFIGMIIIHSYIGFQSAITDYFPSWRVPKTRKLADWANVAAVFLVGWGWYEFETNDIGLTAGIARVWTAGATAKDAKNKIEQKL
Chain of SQR (SDHC / altC) of IPO323 pTet::SDHC3 transformant, repressed (A0A1X7RQW2 36-181): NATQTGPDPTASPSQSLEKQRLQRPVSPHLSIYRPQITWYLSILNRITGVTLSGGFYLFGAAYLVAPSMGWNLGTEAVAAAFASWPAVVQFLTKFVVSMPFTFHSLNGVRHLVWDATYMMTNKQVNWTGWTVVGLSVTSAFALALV
Chain of SQR (SDHC / altC) of IPO323 pTet::SDHC3 transformant, repressed (F9WWR1 41-643 partner): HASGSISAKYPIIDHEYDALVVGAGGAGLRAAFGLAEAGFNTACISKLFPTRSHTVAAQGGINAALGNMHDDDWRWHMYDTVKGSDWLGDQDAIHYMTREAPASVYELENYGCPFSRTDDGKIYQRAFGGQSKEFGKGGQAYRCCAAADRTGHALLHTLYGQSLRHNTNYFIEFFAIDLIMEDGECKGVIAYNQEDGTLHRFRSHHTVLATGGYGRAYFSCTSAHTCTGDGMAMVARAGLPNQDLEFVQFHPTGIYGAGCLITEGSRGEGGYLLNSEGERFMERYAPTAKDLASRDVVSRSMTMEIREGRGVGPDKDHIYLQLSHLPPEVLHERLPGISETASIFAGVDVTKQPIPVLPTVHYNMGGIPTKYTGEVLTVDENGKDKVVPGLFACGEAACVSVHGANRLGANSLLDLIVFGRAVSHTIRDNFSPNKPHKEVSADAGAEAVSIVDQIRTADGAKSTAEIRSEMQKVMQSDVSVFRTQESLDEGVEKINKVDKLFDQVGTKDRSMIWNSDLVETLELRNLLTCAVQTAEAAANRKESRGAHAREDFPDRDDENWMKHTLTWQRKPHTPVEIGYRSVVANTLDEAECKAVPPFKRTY

For assay [4], the system named is Zymoseptoria tritici isolates. In words: Growth tests on solid agar at discriminatory fungicide concentrations. Format: cell-based. The following applies: AE agar. From the text:
Fig 6 Resistance to SHA-SDHIs in Z. tritici EU populations. […] Sensitivity data are sorted by genotype according to the presence of the ZtSDHC3 gene. ** p value of 0.0029 in Welch’s corrected unpaired t-test. (B) Solid agar growth of a collection of 93 Z. tritici isolates sampled in 2009 (same set as above). Individual strains from this collection are boxed and numbered 1 to 93. Boxes A and B correspond to reference resistant strains 06STD024 and 07STGB009 respectively. Box C corresponds to IPO323 reference sensitive isolate. The yellow framed boxes correspond to strains carrying the ZtSDHC3 gene. Yellow arrow designates strain 09STIR20.1 (number 78) carrying a non-functional alt-SDHC (frameshift, S6 Table).
A large scale spotting assay of 96 isolates (Fig 6) was performed using the V&P 96 floating pin tool VP408FP6 (V&P Scientific), equipped with flat tip FP6 pins of 1.58 mm diameter (resulting in approx. 0.4 μl transfer volume). Source cultures for cell spotting were grown in 100 μl YPD liquid medium in a 96 well flat bottom plate (Corning, 3370) at 18°C for 11 days (average cell density of 3.5·10^6/ml), then diluted 1:2x in fresh YPD medium and incubated for another 1.5 h before transfer with the pin tool (approx. 700 cells per spot) onto AE agar with or without fungicide. Plates were incubated at 20°C in the dark for up to 18 days. Smaller scale spotting assays (Figs 4 and 8) were performed using 5 days V8-agar plates inoculums adjusted to 2.10^6 spores.mL^-1 in water and diluted in steps of 3. 2μL of spore suspension was spotted on the plates, and the plates were incubated shielded from light at 21°C for 6 days.

In assay [5] the target is altC-SQR (altC) of D024 SDHC1 KO mitochondria (Zymoseptoria tritici, UniProt A0A1X7RQW2+F9X9V6+O42772). Put plainly: Succinate-quinone (SQR) SDHI sensitivity assay on purified mitochondria, 06STD024 SDHC1 KO. It counts as biochemical. As to conditions: for RF (resistance factor), D024 SDHC1 KO (altC): IC50 ratio compared to IPO323 values; for IC50: mitochondria of 06STD024 ZtSDHC1 deletion mutant (pure altC-SQR), mean of three ± SD. An outline of the steps:
as §1

For assay [6], the target named is SQR (SDHC) of D024 SDHC3 KO mitochondria (Zymoseptoria tritici, UniProt F9X9V6+F9XH52+O42772). In words: Succinate-quinone (SQR) SDHI sensitivity assay on purified mitochondria, 06STD024 SDHC3 KO. It counts as biochemical. The following applies: for RF (resistance factor), D024 SDHC3 KO (SDHC): IC50 ratio compared to IPO323 values; for IC50: mitochondria of 06STD024 ZtSDHC3 deletion mutant, mean of three ± SD. In outline: (§2)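 Mitochondria purified from each strain were used for succinate:ubiquinone/DCPIP reductase assays, with suspensions adjusted to similar initial velocity (1 OD595nm hour^-1). Inhibitor was tested at 0.047 nM–50 μM in 4x steps (11 concentrations plus DMSO). IC50 came from non-linear fits of absorbance slopes (OD/min) against log concentration.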
Chain of SQR (SDHC) of D024 SDHC3 KO mitochondria (F9XH52 44-187): as the sequence (F9XH52 44-187) above
Chain of SQR (SDHC) of D024 SDHC3 KO mitochondria (O42772 19-297): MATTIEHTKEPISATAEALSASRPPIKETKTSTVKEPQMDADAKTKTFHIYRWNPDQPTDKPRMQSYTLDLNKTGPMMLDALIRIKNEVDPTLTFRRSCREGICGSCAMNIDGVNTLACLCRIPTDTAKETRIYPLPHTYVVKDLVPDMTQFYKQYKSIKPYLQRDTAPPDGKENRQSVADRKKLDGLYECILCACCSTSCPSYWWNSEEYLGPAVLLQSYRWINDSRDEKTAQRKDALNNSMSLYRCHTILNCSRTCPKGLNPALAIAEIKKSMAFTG
Chain of SQR (SDHC) of D024 SDHC3 KO mitochondria (F9X9V6 1-193): as the sequence (F9X9V6 1-193) above
Chain of SQR (SDHC) of D024 SDHC3 KO mitochondria (F9WWR1 29-643 partner): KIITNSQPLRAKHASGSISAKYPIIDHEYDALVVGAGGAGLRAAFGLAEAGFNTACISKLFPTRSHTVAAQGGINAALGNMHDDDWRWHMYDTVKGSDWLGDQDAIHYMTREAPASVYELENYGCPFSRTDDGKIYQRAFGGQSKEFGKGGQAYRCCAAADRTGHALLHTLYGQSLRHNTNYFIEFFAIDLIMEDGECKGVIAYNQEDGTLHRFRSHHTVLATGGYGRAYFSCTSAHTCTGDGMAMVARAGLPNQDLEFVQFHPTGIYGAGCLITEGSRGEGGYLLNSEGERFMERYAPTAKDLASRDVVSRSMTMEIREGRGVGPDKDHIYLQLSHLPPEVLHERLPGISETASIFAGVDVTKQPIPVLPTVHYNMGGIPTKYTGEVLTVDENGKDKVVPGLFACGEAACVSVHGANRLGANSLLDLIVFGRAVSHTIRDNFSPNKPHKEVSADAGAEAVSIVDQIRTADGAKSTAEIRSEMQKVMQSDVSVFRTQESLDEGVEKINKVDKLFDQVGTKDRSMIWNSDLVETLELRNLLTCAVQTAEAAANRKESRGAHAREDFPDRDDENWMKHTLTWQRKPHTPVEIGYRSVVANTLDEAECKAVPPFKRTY

In assay [7] the target is WT-SQR (SDHC), IPO323 mitochondria (Zymoseptoria tritici, UniProt F9X9V6+F9XH52+O42772). Put plainly: Succinate-quinone (SQR) SDHI sensitivity assay on purified mitochondria, IPO323. Format: biochemical. An outline of the steps: as §2

Chain of altC-SQR (altC) of D024 SDHC1 KO mitochondria (A0A1X7RQW2 36-181): as the sequence (A0A1X7RQW2 36-181) above
Chain of altC-SQR (altC) of D024 SDHC1 KO mitochondria (O42772 20-297): as the sequence (O42772 20-297) above
Chain of altC-SQR (altC) of D024 SDHC1 KO mitochondria (F9X9V6 1-193): as the sequence (F9X9V6 1-193) above
Chain of altC-SQR (altC) of D024 SDHC1 KO mitochondria (F9WWR1 41-643 partner): as the sequence (F9WWR1 41-643 partner) above

Consider `O=C(NCCc1ncc(C(F)(F)F)cc1Cl)c1ccccc1C(F)(F)F` [Fluopyram], for which the IC50 was 548 ± 68.8 nM in assay [1]; 1390 ± 522 nM in assay [2]; 21.9 ± 7.7 nM in assay [3]; 1160 ± 201 nM in assay [5]; 10.1 ± 2 nM in assay [6]; 12.5 ± 2 nM in assay [7]. Also, the “RF (resistance factor), 06STD024 (SDHC / altC)” value in assay [2] is recorded as 111.3. For the same compound, the “RF (resistance factor), pTet Repressed (SDHC / altC)” value in assay [3] is 1.8. In addition, the “Growth phenotype on SDHI-amended plate” value in assay [4] (strain 06STD024, fluopyram 5 mg.L^-1, 18 DPI (procedure of Fig 6)) is “Very strong”; in assay [4] (strain 07STGB009, fluopyram 5 mg.L^-1, 18 DPI (procedure of Fig 6)) it was “Very strong”; in assay [4] (strain 09STD041, fluopyram 5 mg.L^-1, 18 DPI (procedure of Fig 6)) it was “Weak”; in assay [4] (strain 09STD053, fluopyram 5 mg.L^-1, 18 DPI (procedure of Fig 6)), “Weak”; in assay [4] (strain 09STF011, fluopyram 5 mg.L^-1, 18 DPI (procedure of Fig 6)), “Moderate”; in assay [4] (strain 09STF037, fluopyram 5 mg.L^-1, 18 DPI (procedure of Fig 6)) it was “Very weak”. Moreover, the “Growth phenotype on SDHI-amended plate” value is given as “Strong” in assay [4] (strain 09STF112, fluopyram 5 mg.L^-1, 18 DPI (procedure of Fig 6)); “Very weak” in assay [4] (strain 09STIR20.3, fluopyram 5 mg.L^-1, 18 DPI (procedure of Fig 6)); “No” in assay [4] (strain IPO323, fluopyram 5 mg.L^-1, 18 DPI (procedure of Fig 6)); “No” in assay [4] (strain IPO94269, fluopyram 5 mg.L^-1, 18 DPI (procedure of Fig 6)). Moreover, the “RF (resistance factor), D024 SDHC1 KO (altC)” value in assay [5] is reported as 93.4; in assay [5] (listed as fluopyram) it was around 100. Also, the “RF (resistance factor), D024 SDHC3 KO (SDHC)” value in assay [6] came out at 0.8.

As to `CON(C(=O)c1cn(C)nc1C(F)F)[C@@H](C)Cc1c(Cl)cc(Cl)cc1Cl` [Pydiflumetofen], the half-inhibitory concentration (IC50) worked out at 0.9 ± 0.3 nM in assay [1]; 1.4 ± 0.05 nM in assay [2]; 0.5 ± 0.1 nM in assay [3]; 1.5 ± 0.4 nM in assay [5]; 0.3 ± 0.07 nM in assay [6]; 0.3 ± 0.04 nM in assay [7]. Moreover, in assay [2], the “RF (resistance factor), 06STD024 (SDHC / altC)” value turned out to be 4.6. The “RF (resistance factor), pTet Repressed (SDHC / altC)” value in assay [3] is listed as 1.7. Also, the “Growth phenotype on SDHI-amended plate” value in assay [4] (strain 06STD024, pydiflumetofen 0.1 mg.L^-1, 18 DPI (procedure of Fig 6)) was “Weak”; in assay [4] (strain 06STD024, pydiflumetofen 0.1 mg.L^-1, 18 DPI (procedure of Fig 6), listed as pydiflumetofen) it was “weak growth”; in assay [4] (strain 07STGB009, pydiflumetofen 0.1 mg.L^-1, 18 DPI (procedure of Fig 6)), “Weak”; in assay [4] (strain 07STGB009, pydiflumetofen 0.1 mg.L^-1, 18 DPI (procedure of Fig 6), listed as pydiflumetofen), “weak growth”; in assay [4] (strain 09STD041, pydiflumetofen 0.1 mg.L^-1, 18 DPI (procedure of Fig 6)), “Very weak”; in assay [4] (strain 09STD053, pydiflumetofen 0.1 mg.L^-1, 18 DPI (procedure of Fig 6)), “No”. Moreover, the “Growth phenotype on SDHI-amended plate” value in assay [4] (strain 09STF011, pydiflumetofen 0.1 mg.L^-1, 18 DPI (procedure of Fig 6)) is “Weak”; in assay [4] (strain 09STF037, pydiflumetofen 0.1 mg.L^-1, 18 DPI (procedure of Fig 6)), “Very weak”; in assay [4] (strain 09STF112, pydiflumetofen 0.1 mg.L^-1, 18 DPI (procedure of Fig 6)) it was “Very weak”; in assay [4] (strain 09STIR20.3, pydiflumetofen 0.1 mg.L^-1, 18 DPI (procedure of Fig 6)) it was “Very weak”; in assay [4] (strain IPO323, pydiflumetofen 0.1 mg.L^-1, 18 DPI (procedure of Fig 6)), “No”; in assay [4] (strain IPO94269, pydiflumetofen 0.1 mg.L^-1, 18 DPI (procedure of Fig 6)), “No”. In addition, the “RF (resistance factor), D024 SDHC1 KO (altC)” value in assay [5] was 4.9; in assay [5] (listed as pydiflumetofen), 6. For the same compound, in assay [6], the “RF (resistance factor), D024 SDHC3 KO (SDHC)” value is on record as 1.1.
